According to patent US20210379020A1, “COMPOUNDS FOR THE TREATMENT OF MALARIA” (Merck Sharp & Dohme Corp., priority 2016, published 2021):

tested on: asexual P. falciparum 3D7 parasites; assay: P. falciparum growth inhibition assay with LDH activity readout (Assay 1); format: cell-based, Plasmodium falciparum; conditions: 3D7 strain, 72 h incubation, LDH activity read by absorbance at 650 nm
Experimental: A modified version of the assay described in Gamo, F. J., Sanz, L. M., Vidal, J., de Cozar, C., Alvarez, E., Lavandera, J. L., Vanderwall, D. E., Green, D. V., Kumar, V., Hasan, S., Brown, J. R., Peishoff, C. E., Cardon, L. R., Garcia-Bustos, J. F., Nature, 465 (2010) 305-310 (Gamo et al.) was used to assess the activity of compounds against asexual P. falciparum 3D7 parasites. Compounds were pre-dispensed in 384-well plates, RPMI/AlbuMAX growth media was added and P. falciparum inoculated. Plates were incubated for 72 h and then frozen at −80° C. overnight. LDH activity was quantified with the modified cofactor 3-acetylpyridine adenine dinucleotide (APAD) (Sigma Aldrich) by measuring absorbance of the tetrazolium indicator nitro blue tetrazolium (NBT) (Sigma Aldrich) at 650 nm.
An inoculum of synchronous P. falciparum (3D7 strain) parasitized red blood cells (PRBC) at 0.7% parasitaemia and 2% haematocrit in RPMI-1640, 5% AlbuMAX, 2% D-sucrose, 0.3% glutamine and 150 μM hypoxanthine was used for the assay.
Compound master plates (384-well) were prepared by a 10 pt serial dilution of compounds, from 1 mM to 50.8 nM, in columns 3-12 and 13-22. DMSO was dispensed into columns 1 and 23 of the compound master plate to be used as the positive growth control (100% viability). […] Intermediate compound dilution plates were prepared by dispensing 1 μl from each well of the compound master plate into 11.5 μl of RPMI/AlbuMAX growth media. Duplicate assay plates (384-well) were then prepared by dispensing 0.5 μL of compound from the intermediate dilution plates into 9.5 μl of RPMI/AlbuMAX growth media. The parasite inoculum (30 μL) was dispensed into the assay plates containing compounds using a Multidrop dispenser (Thermo Scientific) such that the final assay volume was 40 μL and final compound concentration was 1 μM-0.05 nM (the volume of compound addition can be adjusted to the preferred and agreed screening concentration). The final DMSO concentration was 0.1% (ideally 0.2% to limit toxicity to parasites), but this is dependent on volume of compound DMSO stock solution that can be supplied. Plates were incubated at 37° C. for 72 h in an atmosphere of 5% CO2, 5% O2, […].
After 72 h of incubation, plates were frozen at −80° C. overnight and then thawed at room temperature for at least 4 h. To evaluate LDH activity, 45 μL of freshly made reaction mix (174 mM sodium L-lactate (Sigma Aldrich), 214 μM 3-acetyl pyridine adenine dinucleotide (APAD) (Sigma Aldrich), 270 μM nitro blue tetrazolium chloride (NBT) (Sigma Aldrich), 4.35 U/mL diaphorase (from Clostridium kluyveri) (Sigma Aldrich), 0.7% Tween 20, 100 mM Tris-HCl pH 7.5) was dispensed using a Multidrop dispenser (Thermo Scientific). Plates were shaken to ensure mixing and absorbance at 650 nm was monitored using a Perkin Elmer Envision plate reader after 30 min of incubation at room temperature. Data were normalized to percent growth inhibition using positive and negative controls, and analysed using TIBCO Spotfire software.
P. falciparum 3D7 strain was grown as described in Assay 1, at 37° C. for 72 hours. The culture was frozen at −80° C. overnight. Cultures were thawed at room temperature for at least 4 hours and the reaction mixture described in Assay 1 was made in order to measure the possible direct inhibition of LDH by the following compounds, assayed as above in Assay 1.

| Structure (SMILES) | IC50 [nM] |
| --- | --- |
| CC(C)CC[C@]1(c2ccccc2)NC(=N)N(Cc2ccc(C(C)(C)C)c(C(=O)NCc3cccnc3)c2)C1=O [Compound 11] | 172 |
| N=C1NC(C[C@@H]2CCCO2)(c2ccccc2)C(=O)N1Cc1ccc(C(F)(F)F)c(C(=O)N2Cc3nccnc3C2)c1 (some centres unmarked) [Compound 2] | 5.8 |
| CC(=O)N1CCN(C(=O)c2cc(F)cc(CN3C(=N)NC(c4ccccc4)(c4ccccc4)C3=O)c2)CC1 [Compound 1] | 4.5 |
| CC(C)CC[C@]1(c2ccccc2)NC(=N)N(Cc2ccc(C(F)(F)F)c(C(=O)N3CC(O)C(F)C3)c2)C1=O (some centres unmarked) [Compound 3] | 9.6 |
| N=C1NC(c2ccc(F)cc2)(C2CCCCC2)C(=O)N1Cc1ccc(C(F)(F)F)c(C(=O)N2Cc3nccnc3C2)c1 (centres unmarked) [Compound 4] | 9.7 |
